# Measurements published in a melting point compilation (Tetko et al.; mined from patent text by program, amines drawn as free bases though some values may be those of a salt).
# Residues, ends and D or L forms follow the SMILES beside them. *: point of attachment. Tos = Cc1ccc(S(=O)(=O)*)cc1
row,melting point,SMILES
1,116 to 118 °C,COC(=O)c1ccc(Cc2cn(C)c3ccc(C=O)cc23)c(OC)c1
2,157 to 161 °C,Cc1ccc(S(=O)(=O)NCC(=O)N[C@@H](Cc2ccccc2)C(=O)O)cc1 (Tos-Gly-Phe-OH)
3,55 to 65 °C,CC(Cl)=Cc1ccc([N+](=O)[O-])o1
4,193 to 196 °C,NC(=O)N1CCN(CC(O)COc2ccc(Cl)cc2)CC1 (configuration not stated)
5,170 to 171 °C,O=C(O)CCOc1ccccc1-c1nc(-c2ccccc2)no1
6,215 to 217 °C,CC1CCCC(NC(CCc2ccccc2)C(=O)O)C(=O)N1CC(=O)O (configuration not stated)
7,228 °C,N#CC1=C(C2CCN(C(=O)c3ccccc3)CC2)Nc2n[nH]cc2C1c1cccc2nonc12 (configuration not stated)
8,210 to 213 °C,O=C(Nc1cccc2c(CBr)c(Br)cnc12)c1c(Cl)cccc1Cl
9,142 to 144 °C,CC1=CC(O)C(OC(=O)c2ccccc2)C(C)(C)CC1OC(=O)c1ccccc1 (configuration not stated)
10,35 °C,CCCCCCCCCCCCCCOCc1ccc(C=C2C(=O)C3(C)CCC2C3(C)C)cc1 (configuration not stated)
11,156 °C,CC(C)(N)c1ccc(-c2nc(Nc3ccc(CCN4CCOCC4)cc3)ncc2C#N)cc1
12,124 to 126 °C,CCOC(=O)Nc1c(C)cc(Cl)cc1C(=O)O
13,159 °C,CCCC1=NN(c2ccncc2)C(=O)C1=CNc1ccccc1CC
14,210 to 211 °C,COc1ccc2oc(N(C=O)[C@@H](Cc3ccccn3)c3ncc(-c4ccc([N+](=O)[O-])cc4)n3C)cc2c1
15,195 to 196 °C,CCc1c2nc(-c3cc(C(C)=O)cnc3OCC(C)C)[nH]c(=O)c2nn1C1CCN(C)CC1
16,116 to 117 °C,COc1ccc(-n2nc(C(C)(C)C)cc2NC(=O)c2cccc3cc(Oc4cc(NCCN(C)C)ncn4)ccc23)cc1
17,180 to 181 °C,O=C(O)c1ccc(C2=CCC3CCC2C3)cc1 (configuration not stated)
18,191 to 194 °C,O=C1Cc2cccc(S(=O)c3ccc(Cl)cc3)c2N1 (configuration not stated)
19,202 to 205 °C,Cc1ccccc1-c1c(C(C)n2cnc3c(N)ncnc32)oc2ccccc2c1=O (configuration not stated)
20,265 to 268 °C,Cc1ccc(S(=O)(=O)N2CCN(S(=O)(=O)c3ccc(C)cc3)CC3=CC=C(CN(S(=O)(=O)c4ccc(C)cc4)CC2)S3)cc1
21,136 °C,OC(c1ccc2noc(-c3cccc(Cl)c3)c2c1)c1nc(-c2ccccc2)cs1 (configuration not stated)

row,melting point,SMILES
1,83 to 85 °C,CCCCCN(Cc1ccc(-c2ccccc2S(=O)(=O)NC(=O)c2ccccc2Cl)cc1)C(=O)N1CCc2ccccc21
2,150 °C,CCN(CC)S(=O)(=O)c1ccccc1S(=O)(=O)N=C(Nc1nc(OC)nc(OC)n1)SC
3,124 to 126 °C,CC(C)n1nc(-c2c(-c3ccccc3)nn3ccc(N4CCN(C(=O)c5ccccc5)CC4)cc23)ccc1=O
4,93 to 96 °C,CN1CCN(c2cc(Cl)cc3c2c(=O)n(Cc2ccc(N)cc2)c(=O)n3Cc2ccccc2)CC1
5,121 °C,N#Cc1c(CNC(=O)c2ccc(-n3cccc3)cc2)nn(-c2ccc(Cl)cc2Cl)c1-c1ccc(Cl)cc1
6,167 to 168 °C,CCCOc1ccc(/C=C/C(=O)OC(C)(C)C)cc1-c1nc2c(CCC)nn(C)c2c(=O)[nH]1
7,168 °C,CC(=O)NCCc1c[nH]c2ncccc12
8,108 to 127 °C,CCCCCCCCCCCCCCCCCCNC(=O)NCCN
9,123 to 125 °C,CCOc1ccc(C(=O)C2CC=CCC2C(=O)O)cc1Cl (configuration not stated)
10,143 to 145 °C,Clc1cccc(Oc2nnc(Cc3ccncc3)c3ccccc23)c1
11,148 to 149 °C,CC(C)(C)OC(=O)N1CCC2(CC1)C(=O)N(CC(=O)O)CN2CC1CCCCC1
12,96 to 97 °C,CCOP(=O)(Cc1ccc(C(=S)N2CCCc3ccccc32)cc1)OCC
13,203 to 208 °C,COc1cccc(C=C2N=C(c3ccc([N+](=O)[O-])cc3)OC2=O)c1OC
14,201 to 203 °C,CC(C)N(Cc1ccc2cc(NC(=O)c3ccc(-c4ccc(Cl)cc4)nc3)ccc2n1)C(C)C
15,90 to 91 °C,O=C(O)CCCC/C=C(\c1cccnc1)c1ccc2c(c1)OCO2
16,193 to 194 °C,Cc1ncccc1CC(=NC#N)NC1CCCc2ccccc21 (configuration not stated)
17,99 to 101 °C,COc1cccc(C2=C(c3cn4c5c(cccc35)CCC4)C(=O)NC2=O)c1
18,145 to 148 °C,O=C1NCC(CO)C1(c1ccccc1)c1ccccc1 (configuration not stated)
19,154 to 156 °C,O=C1[C@H]2CCC[C@H]2N(C(=O)CCl)c2ccccc2N1Cc1ccccc1 (relative stereo)
20,128 to 130 °C,N#CC(=C(Cl)c1ccc(Br)cc1)c1ccccc1
21,170 to 171 °C,COc1ccc(CCN2CCc3cc(O)c(OC)cc3C2)cc1

row,melting point,SMILES
1,154 to 156 °C,C/C=C/CONC(=O)c1nc(-c2ccc(Cl)c(OC)c2F)cc(N)c1Cl
2,335 to 345 °C,O=C1NC(=O)c2c1ccc1[nH]c3ccc(O)cc3c21
3,76 to 80 °C,c1cc(-c2cc(C3CC3)on2)ccn1
4,86 to 88 °C,Clc1ccc(Oc2cc(Br)c(Cl)cc2OCc2ccccc2)c(Cl)c1
5,124 °C,CCn1c(Nc2ccc(C(F)(F)F)cc2C(F)(F)F)nc(C(F)(F)F)c(Cl)c1=O
6,79 to 81 °C,CCOC(=O)C(C(=O)NCc1ccccc1)=C1SC=CS1
7,85 to 87 °C,COC(=O)C1CN(C(=O)OC(C)(C)C)CCN1C(=O)/C=C/c1ccc(Sc2ccc3c(c2)OCCO3)c(C(F)(F)F)c1 (configuration not stated)
8,250 °C,O=C(Nc1cccc(NC(=O)c2ccc(O)cc2)c1)c1ccc(O)cc1
9,104 to 106 °C,Cc1c(N)cccc1CO
10,136 to 137 °C,Cc1cc(NCc2ccccc2)nc(-n2nc(C)cc2C)n1
11,190 to 193 °C,CCCc1nc2c(N)nc3cc(-c4cccc(C(=O)N5CCOCC5)c4)ccc3c2s1
12,219 to 220 °C,CCCCc1nc2cnc3ccc(O)cc3c2n1C
13,262 to 263 °C,COC1C(NC(=O)C(F)(F)F)CC(OC2CC(O)(CO)Cc3c(O)c4c(c(O)c32)C(=O)c2ccccc2C4=O)OC1C (configuration not stated)
14,224 to 226 °C,NC1CN(c2c(F)cc3c(=O)c(C(=O)O)cn(C4CC4)c3c2F)CC12OCCO2 (configuration not stated)
15,109 to 111 °C,CCn1cc([C@]2(c3cccc(-c4cccnc4F)c3)N=C(N)N(C)C2=O)cc1C(C)=O
16,297 to 298 °C,CN(C)c1ccc(-c2cc3nccnc3[nH]2)cc1
17,167 to 168 °C,CO/N=C(\C)[C@H]1CC[C@H]2[C@@H]3CC=C4C[C@@H](O)CC[C@]4(C)[C@H]3CC[C@]12C
18,229 °C,COc1ccc(CNc2ncccc2C(=O)O)cc1
19,147 to 148 °C,CN(Cc1cc(C(F)(F)F)cc(C(F)(F)F)c1)C(=O)c1c(Cl)nc2ccccc2c1-c1ccccc1
20,92 to 93 °C,COc1ccc(Cl)c(NC(C)=S)c1

row,SMILES,melting point
1,Cc1c(C(=O)Nc2ccc(OCC(C)(C)C)c(C#N)c2)cnn1C1CCCCC1,126 to 128 °C
2,CC1=NNC(=O)C1(C)Cl (configuration not stated),56 °C
3,Cc1cc2c(cc1-c1cccc(C=O)c1)C(C)(C)CCC2(C)C,104 to 105 °C
4,"CCOC(=O)C(C)(C)Oc1cc2c(cc1C)OC1(CC(C)(C)c3cc(O)c(C)cc3O1)CC2(C)C (single isomer, unassigned; (-))",165 to 166 °C
5,O=C(O)C(=O)CC(=O)c1cn(Cc2ccc(F)cc2)c2ccccc12,161 to 162 °C
